Data reported in patent US10526352B2, “Tricyclic benzoxaborole compounds and uses thereof” (GlaxoSmithKline Intellectual Property (No.2) Limited, priority 2013, dated 2020).
Converted amounts (≈) assume the structure as drawn. Where two headings read alike, the source gives them in different places.

Assays:
A. baumannii ATCC 17978 = test: General antimicrobial activity assay (CLSI broth microdilution); format: cell-based, Acinetobacter baumannii
Method: (§1) Whole-cell antimicrobial activity was determined by broth microdilution using the Clinical and Laboratory Standards Institute (CLSI) recommended procedure, Document M7-A7, “Methods for Dilution Susceptibility Tests for Bacteria that Grow Aerobically”.

[1] = system: M. tuberculosis clinical isolates; test: MIC against clinical strains (BACTEC MGIT 960 System); format: cell-based; settings: Mycobacterium tuberculosis
P. aeruginosa PA01 = test: General antimicrobial activity assay (CLSI broth microdilution); format: cell-based, Pseudomonas aeruginosa
Method: as §1

E. coli K12 = test: as above; format: cell-based, Escherichia coli
Method: as §1

E. coli K12 tolC::Tn10 = test: as above; format: cell-based, Escherichia coli
Method: as §1

Mtb LeuRS = Mtb LeuRS (Mycobacterium tuberculosis, UniProt P9WFV1); test: biochemical; set-up: species or system M. tuberculosis
Chain of Mtb LeuRS (P9WFV1 whole entry): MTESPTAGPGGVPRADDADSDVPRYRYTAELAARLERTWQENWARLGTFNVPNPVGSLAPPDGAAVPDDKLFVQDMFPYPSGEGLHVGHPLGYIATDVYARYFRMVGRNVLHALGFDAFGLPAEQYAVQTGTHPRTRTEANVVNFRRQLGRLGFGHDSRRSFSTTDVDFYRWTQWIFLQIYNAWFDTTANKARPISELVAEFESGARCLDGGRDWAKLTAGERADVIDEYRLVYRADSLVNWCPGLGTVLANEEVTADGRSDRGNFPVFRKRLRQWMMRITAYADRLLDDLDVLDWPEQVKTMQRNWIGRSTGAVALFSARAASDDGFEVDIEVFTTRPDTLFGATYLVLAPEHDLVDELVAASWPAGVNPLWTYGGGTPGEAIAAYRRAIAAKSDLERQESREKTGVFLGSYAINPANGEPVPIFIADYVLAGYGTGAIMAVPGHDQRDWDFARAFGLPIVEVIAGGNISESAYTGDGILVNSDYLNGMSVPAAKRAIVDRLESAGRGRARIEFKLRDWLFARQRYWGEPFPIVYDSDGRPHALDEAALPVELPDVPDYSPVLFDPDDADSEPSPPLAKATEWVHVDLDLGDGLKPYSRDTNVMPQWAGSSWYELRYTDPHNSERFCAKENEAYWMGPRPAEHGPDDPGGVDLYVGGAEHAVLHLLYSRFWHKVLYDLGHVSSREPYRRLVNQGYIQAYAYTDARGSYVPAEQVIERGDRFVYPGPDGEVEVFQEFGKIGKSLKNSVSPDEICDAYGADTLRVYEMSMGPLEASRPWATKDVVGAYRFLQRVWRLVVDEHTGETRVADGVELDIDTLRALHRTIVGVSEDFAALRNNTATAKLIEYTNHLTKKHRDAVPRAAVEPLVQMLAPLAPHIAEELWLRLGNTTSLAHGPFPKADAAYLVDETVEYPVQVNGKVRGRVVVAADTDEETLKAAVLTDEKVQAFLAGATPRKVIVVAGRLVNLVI

[2] = system: M. tuberculosis standard strain Mtb H37Rv; test: MIC determination against mycobacteria (resazurin, Middlebrook 7H9); format: cell-based, Mycobacterium tuberculosis
Human cyto LeuRS = Human cyto LeuRS (Homo sapiens, UniProt Q9P2J5); test: LeuRS aminoacylation assay, IC50 determination; format: biochemical
Chain of Human cyto LeuRS (Q9P2J5 whole entry): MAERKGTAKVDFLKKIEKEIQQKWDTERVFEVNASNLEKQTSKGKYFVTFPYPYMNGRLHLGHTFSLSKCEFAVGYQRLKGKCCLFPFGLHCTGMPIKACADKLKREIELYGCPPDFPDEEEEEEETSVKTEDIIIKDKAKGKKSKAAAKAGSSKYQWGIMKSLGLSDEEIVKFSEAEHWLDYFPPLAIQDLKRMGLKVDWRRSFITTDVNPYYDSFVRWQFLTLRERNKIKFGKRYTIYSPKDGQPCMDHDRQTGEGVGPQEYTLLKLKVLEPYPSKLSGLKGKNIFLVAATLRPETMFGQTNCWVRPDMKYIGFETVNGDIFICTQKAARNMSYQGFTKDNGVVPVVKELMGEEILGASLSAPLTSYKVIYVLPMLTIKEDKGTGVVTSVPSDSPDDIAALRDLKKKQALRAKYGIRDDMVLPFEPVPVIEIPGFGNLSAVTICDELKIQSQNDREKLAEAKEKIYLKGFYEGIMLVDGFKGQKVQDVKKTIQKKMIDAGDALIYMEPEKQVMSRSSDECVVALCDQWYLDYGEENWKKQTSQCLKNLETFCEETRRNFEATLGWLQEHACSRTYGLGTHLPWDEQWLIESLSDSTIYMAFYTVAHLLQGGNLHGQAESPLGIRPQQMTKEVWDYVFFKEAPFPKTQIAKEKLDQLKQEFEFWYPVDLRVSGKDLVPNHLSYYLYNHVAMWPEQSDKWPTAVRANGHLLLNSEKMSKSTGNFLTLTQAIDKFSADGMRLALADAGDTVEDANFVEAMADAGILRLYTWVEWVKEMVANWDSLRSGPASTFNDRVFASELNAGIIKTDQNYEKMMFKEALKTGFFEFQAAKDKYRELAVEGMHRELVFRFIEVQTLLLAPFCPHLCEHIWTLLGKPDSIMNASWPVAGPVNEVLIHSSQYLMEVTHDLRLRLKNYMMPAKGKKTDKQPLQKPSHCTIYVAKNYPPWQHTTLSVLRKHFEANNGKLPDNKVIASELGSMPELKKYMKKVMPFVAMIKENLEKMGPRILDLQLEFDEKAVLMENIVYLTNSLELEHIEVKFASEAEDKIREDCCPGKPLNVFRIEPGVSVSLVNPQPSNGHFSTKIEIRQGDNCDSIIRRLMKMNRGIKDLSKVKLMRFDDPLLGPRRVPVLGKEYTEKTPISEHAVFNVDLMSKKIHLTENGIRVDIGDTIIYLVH

[3] = Mycobacterium tuberculosis, H37RV; read-out: Mtb H37Rv MIC (B)

Cl.NC[C@H]1OB2OCCOc3ccc(Cl)c1c32 [Example 4, (S)-(3-chloro-7,8-dihydro-2H-1,6,9-trioxa-9a-borabenzo[cd]azulen-2-yl)methanamine hydrochloride]
MIC: A. baumannii ATCC 17978 (A. baumannii ATCC 17978): 64 µg/mL
HepG2 cell 48 h Tox50 (A) (HepG2 cells): >1000 µM
MIC ([1]; read-out: measured MIC (breakdown), for 1 strain (EXAMPLE 2 and EXAMPLE 4), highest MIC): 0.16 µM
MIC ([1]; read-out: measured MIC (breakdown), for 1 strain of 40 clinical isolates (lowest MIC, EXAMPLE 4)): ≤ 0.2 µM
MIC ([1]; read-out: measured MIC (breakdown), for 40 strains (EXAMPLE 2 and EXAMPLE 4)): 0.08 µM
MIC ([1]; strain 3, sensitive clinical isolate): 0.04 µM
MIC ([1]; strain 52, sensitive clinical isolate): 0.08 µM
MIC ([1]; strain 137, sensitive clinical isolate): 0.08 µM
MIC ([1]; strain 161, sensitive clinical isolate): 0.31 µM
MIC ([1]; strain 169, sensitive clinical isolate): 0.08 µM
MIC ([1]; strain 192, sensitive clinical isolate): 0.08 µM
MIC ([1]; strain 199, sensitive clinical isolate): 0.08 µM
MIC ([1]; strain 206, sensitive clinical isolate): 0.08 µM
MIC ([1]; strain 207, sensitive clinical isolate): 0.08 µM
MIC ([1]; strain 208, sensitive clinical isolate): 0.08 µM
MIC ([1]; strain 223, sensitive clinical isolate): 0.08 µM
MIC ([1]; strain 231, sensitive clinical isolate): 0.08 µM
MIC ([1]; strain 237, sensitive clinical isolate): 0.08 µM
MIC ([1]; strain 247, sensitive clinical isolate): 0.08 µM
MIC ([1]; strain 248, sensitive clinical isolate): 0.08 µM
MIC ([1]; strain 249, sensitive clinical isolate): 0.08 µM
MIC ([1]; strain 250, sensitive clinical isolate): 0.08 µM
MIC ([1]; strain 253, sensitive clinical isolate): 0.08 µM
MIC ([1]; strain 255, sensitive clinical isolate): 0.08 µM
MIC ([1]; strain 256, sensitive clinical isolate): 0.08 µM
MIC ([1]; strain 257, sensitive clinical isolate): 0.08 µM
MIC ([1]; strain 261, sensitive clinical isolate): 0.08 µM
MIC ([1]; strain 265, sensitive clinical isolate): 0.08 µM
MIC ([1]; strain 267, sensitive clinical isolate): 0.08 µM
MIC ([1]; strain 269, sensitive clinical isolate): 0.08 µM
MIC ([1]; strain 274, sensitive clinical isolate): 0.16 µM
MIC ([1]; strain 281, sensitive clinical isolate): 0.08 µM
MIC ([1]; strain 292, sensitive clinical isolate): 0.08 µM
MIC ([1]; strain 296, sensitive clinical isolate): 0.08 µM
MIC ([1]; strain 311, sensitive clinical isolate): 0.08 µM
MIC ([1]; strain 314, sensitive clinical isolate): 0.08 µM
MIC ([1]; strain 316, sensitive clinical isolate): 0.08 µM
MIC ([1]; strain 317, sensitive clinical isolate): 0.08 µM
MIC ([1]; strain 322, sensitive clinical isolate): 0.08 µM
MIC ([1]; strain 323, sensitive clinical isolate): 0.08 µM
MIC ([1]; strain 324, sensitive clinical isolate): 0.08 µM
MIC ([1]; strain 325, sensitive clinical isolate): 0.16 µM
MIC ([1]; strain 326, sensitive clinical isolate): 0.08 µM
MIC ([1]; strain 327, sensitive clinical isolate): 0.08 µM
MIC ([1]; strain 328, sensitive clinical isolate): 0.08 µM
MIC ([1]; strain 329, sensitive clinical isolate): 0.08 µM
MIC ([1]; strain 332, sensitive clinical isolate): 0.08 µM
MIC ([1]; strain 333, sensitive clinical isolate): 0.08 µM
MIC ([1]; strain 337, sensitive clinical isolate): 0.08 µM
MIC ([1]; strain 356, sensitive clinical isolate): 0.04 µM
MIC ([1]; strain 357, sensitive clinical isolate): 0.04 µM
MIC ([1]; strain 358, sensitive clinical isolate): 0.08 µM
MIC ([1]; strain 361, sensitive clinical isolate): 0.08 µM
MIC ([1]; strain 362, sensitive clinical isolate): 0.04 µM
MIC ([1]; strain 370, sensitive clinical isolate): 0.04 µM
MIC ([1]; strain 371, sensitive clinical isolate): 0.08 µM
MIC ([1]; strain 374, sensitive clinical isolate): 0.08 µM
MIC ([1]; strain 385, sensitive clinical isolate): 0.08 µM
MIC ([1]; strain 391, sensitive clinical isolate): 0.08 µM
MIC ([1]; strain 424, sensitive clinical isolate): 0.08 µM
MIC ([1]; strain 440, sensitive clinical isolate): 0.08 µM
MIC ([1]; strain 442, sensitive clinical isolate): 0.08 µM
MIC ([1]; strain 457, sensitive clinical isolate): 0.04 µM
MIC ([1]; strain 460, sensitive clinical isolate): 0.08 µM
MIC ([1]; strain 481, sensitive clinical isolate): 0.08 µM
MIC ([1]; strain 705, sensitive clinical isolate): 0.16 µM
MIC ([1]; strain 716, sensitive clinical isolate): 0.08 µM
MIC ([1]; strain 729, sensitive clinical isolate): 0.08 µM
MIC ([1]; strain 730, sensitive clinical isolate): 0.08 µM
MIC ([1]; strain 731, sensitive clinical isolate): 0.08 µM
MIC ([1]; strain 733, sensitive clinical isolate): 0.08 µM
MIC ([1]; strain 734, sensitive clinical isolate): 0.08 µM
MIC ([1]; strain 736, sensitive clinical isolate): 0.08 µM
MIC ([1]; strain 737, sensitive clinical isolate): 0.08 µM
MIC: P. aeruginosa PA01 (P. aeruginosa PA01): 64 µg/mL
MIC: E. coli K12 (E. coli K12): 64 µg/mL
MIC: E. coli K12 tolC::Tn10 (E. coli K12 tolC::Tn10): 64 µg/mL
IC50 (Mtb LeuRS): 0.148 µM
MIC ([2]; Mycobacterium tuberculosis, H37RV, read-out: Mtb H37Rv MIC (B)): < 0.1 µM
MIC ([2]; hydrochloride; read-out: Mtb H37Rv MIC (B)): 0.08 µM

CCOc1ccc(Br)c2c1B(O)O[C@@H]2CN [Example C4-Br, reference compound]
MIC: A. baumannii ATCC 17978 (A. baumannii ATCC 17978): 64 µg/mL (≈ 224 µM)
IC50 (Human cyto LeuRS): 67 µM
Selectivity Index (A/B) (HepG2 cells): 320
HepG2 cell 48 h Tox50 (A) (HepG2 cells): 32 µM
MIC: P. aeruginosa PA01 (P. aeruginosa PA01): 64 µg/mL (≈ 224 µM)
MIC: E. coli K12 (E. coli K12): 64 µg/mL (≈ 224 µM)
MIC: E. coli K12 tolC::Tn10 (E. coli K12 tolC::Tn10): 64 µg/mL (≈ 224 µM)
MIC [2, 3]: 0.1 µM (≈ 0.0286 µg/mL)

CCOc1ccc(Cl)c2c1B(O)O[C@@H]2CN [Example C6-Cl, reference compound]
MIC: A. baumannii ATCC 17978 (A. baumannii ATCC 17978): 64 µg/mL (≈ 265 µM)
IC50 (Human cyto LeuRS): 38.8 µM
Selectivity Index (A/B) (HepG2 cells): 363
HepG2 cell 48 h Tox50 (A) (HepG2 cells): 36.3 µM
MIC: P. aeruginosa PA01 (P. aeruginosa PA01): 64 µg/mL (≈ 265 µM)
MIC: E. coli K12 (E. coli K12): 64 µg/mL (≈ 265 µM)
MIC: E. coli K12 tolC::Tn10 (E. coli K12 tolC::Tn10): 64 µg/mL (≈ 265 µM)
MIC [2, 3]: 0.1 µM (≈ 0.0241 µg/mL)
